In the kinase profiling compilation of Christmann-Franck et al. (2016):

Tests used:
Assay in all cases: radiometric filter-binding kinase assay, Kinase HotSpot
Conditions in all cases: compound 0.5 µM; ATP 10 µM
PAK3 (human) = PAK3 (human) (UniProt O75914)
CAMKK1 (human) = CAMKK1 (human) (UniProt Q8N5S9)
PRKCD (human) = PRKCD (human) (UniProt Q05655)
RPS6KA3 KD1 KD2 (human) = RPS6KA3 KD1 KD2 (human) (UniProt P51812)
ACVR1B (human) = ACVR1B (human) (UniProt P36896)
PIM2 (human) = PIM2 (human) (UniProt Q9P1W9)
FGFR3 (human) = FGFR3 (human) (UniProt P22607)
DAPK3 (human) = DAPK3 (human) (UniProt O43293)
NTRK1 (human) = NTRK1 (human) (UniProt P04629)
CDC42BPA (human) = CDC42BPA (human) (UniProt Q5VT25)
YES1 (human) = YES1 (human) (UniProt P07947)
CHEK2 (human) = CHEK2 (human) (UniProt O96017)
PIM1 (human) = PIM1 (human) (UniProt P11309)
MET (human) = MET (human) (UniProt P08581)
TNK2 (human) = TNK2 (human) (UniProt Q07912)
AKT3 (human) = AKT3 (human) (UniProt Q9Y243)
MAPK10 (human) = MAPK10 (human) (UniProt P53779)
VRK1 (human) = VRK1 (human) (UniProt Q99986)
Sequence of VRK1 (human) (Q99986 whole entry, looked up): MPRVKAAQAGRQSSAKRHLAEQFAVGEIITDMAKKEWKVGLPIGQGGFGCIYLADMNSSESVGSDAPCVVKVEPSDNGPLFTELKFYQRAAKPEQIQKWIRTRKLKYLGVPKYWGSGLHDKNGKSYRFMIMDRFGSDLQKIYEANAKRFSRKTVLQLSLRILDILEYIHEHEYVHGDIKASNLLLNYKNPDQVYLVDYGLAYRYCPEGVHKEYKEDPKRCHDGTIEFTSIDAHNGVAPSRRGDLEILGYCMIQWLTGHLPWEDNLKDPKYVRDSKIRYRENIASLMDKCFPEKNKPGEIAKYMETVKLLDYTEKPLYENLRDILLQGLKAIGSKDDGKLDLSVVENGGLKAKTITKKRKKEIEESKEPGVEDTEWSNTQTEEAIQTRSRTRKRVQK

MAPK11 (human) = MAPK11 (human) (UniProt Q15759)
Sequence of MAPK11 (human) (Q15759 whole entry, looked up): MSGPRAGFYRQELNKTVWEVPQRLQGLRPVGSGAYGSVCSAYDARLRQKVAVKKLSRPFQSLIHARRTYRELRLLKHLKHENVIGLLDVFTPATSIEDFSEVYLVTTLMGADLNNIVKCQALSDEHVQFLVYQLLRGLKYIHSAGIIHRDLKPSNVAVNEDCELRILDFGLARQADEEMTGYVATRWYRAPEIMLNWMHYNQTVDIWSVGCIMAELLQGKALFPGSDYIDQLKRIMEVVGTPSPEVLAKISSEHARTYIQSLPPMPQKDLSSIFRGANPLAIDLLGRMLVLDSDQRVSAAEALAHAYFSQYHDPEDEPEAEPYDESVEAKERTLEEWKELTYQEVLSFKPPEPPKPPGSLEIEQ

BTK (human) = BTK (human) (UniProt Q06187)
STK25 (human) = STK25 (human) (UniProt O00506)
MAP3K14 (human) = MAP3K14 (human) (UniProt Q99558)
ITK (human) = ITK (human) (UniProt Q08881)
Sequence of ITK (human) (Q08881 whole entry, looked up): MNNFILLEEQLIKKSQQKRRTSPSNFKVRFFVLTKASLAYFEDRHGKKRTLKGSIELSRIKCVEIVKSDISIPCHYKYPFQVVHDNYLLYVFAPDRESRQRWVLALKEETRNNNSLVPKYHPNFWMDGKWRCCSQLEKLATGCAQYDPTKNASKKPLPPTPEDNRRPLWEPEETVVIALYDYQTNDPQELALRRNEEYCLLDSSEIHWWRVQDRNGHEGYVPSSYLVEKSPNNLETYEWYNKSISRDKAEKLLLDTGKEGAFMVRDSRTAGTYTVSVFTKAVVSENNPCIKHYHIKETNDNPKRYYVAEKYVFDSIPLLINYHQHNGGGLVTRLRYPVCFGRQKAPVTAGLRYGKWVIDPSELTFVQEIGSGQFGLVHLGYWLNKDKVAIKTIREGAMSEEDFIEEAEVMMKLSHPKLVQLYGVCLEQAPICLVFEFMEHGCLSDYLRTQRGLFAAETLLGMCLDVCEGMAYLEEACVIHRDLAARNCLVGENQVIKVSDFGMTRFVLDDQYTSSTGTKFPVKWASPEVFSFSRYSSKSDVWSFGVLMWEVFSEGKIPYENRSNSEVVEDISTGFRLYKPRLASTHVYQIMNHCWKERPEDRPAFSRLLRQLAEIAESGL

EPHA5 (human) = EPHA5 (human) (UniProt P54756)
CSNK1G1 (human) = CSNK1G1 (human) (UniProt Q9HCP0)
RPS6KB1 (human) = RPS6KB1 (human) (UniProt P23443)
MAP3K5 (human) = MAP3K5 (human) (UniProt Q99683)
CDK1 CCNB1 (human) = CDK1 CCNB1 (human) (UniProt P06493+P14635)
PRKCB1 (human) = PRKCB1 (human) (UniProt P05771)
DSTYK (human) = DSTYK (human) (UniProt Q6XUX3)
PRKD3 (human) = PRKD3 (human) (UniProt O94806)
Sequence of PRKD3 (human) (O94806 whole entry, looked up): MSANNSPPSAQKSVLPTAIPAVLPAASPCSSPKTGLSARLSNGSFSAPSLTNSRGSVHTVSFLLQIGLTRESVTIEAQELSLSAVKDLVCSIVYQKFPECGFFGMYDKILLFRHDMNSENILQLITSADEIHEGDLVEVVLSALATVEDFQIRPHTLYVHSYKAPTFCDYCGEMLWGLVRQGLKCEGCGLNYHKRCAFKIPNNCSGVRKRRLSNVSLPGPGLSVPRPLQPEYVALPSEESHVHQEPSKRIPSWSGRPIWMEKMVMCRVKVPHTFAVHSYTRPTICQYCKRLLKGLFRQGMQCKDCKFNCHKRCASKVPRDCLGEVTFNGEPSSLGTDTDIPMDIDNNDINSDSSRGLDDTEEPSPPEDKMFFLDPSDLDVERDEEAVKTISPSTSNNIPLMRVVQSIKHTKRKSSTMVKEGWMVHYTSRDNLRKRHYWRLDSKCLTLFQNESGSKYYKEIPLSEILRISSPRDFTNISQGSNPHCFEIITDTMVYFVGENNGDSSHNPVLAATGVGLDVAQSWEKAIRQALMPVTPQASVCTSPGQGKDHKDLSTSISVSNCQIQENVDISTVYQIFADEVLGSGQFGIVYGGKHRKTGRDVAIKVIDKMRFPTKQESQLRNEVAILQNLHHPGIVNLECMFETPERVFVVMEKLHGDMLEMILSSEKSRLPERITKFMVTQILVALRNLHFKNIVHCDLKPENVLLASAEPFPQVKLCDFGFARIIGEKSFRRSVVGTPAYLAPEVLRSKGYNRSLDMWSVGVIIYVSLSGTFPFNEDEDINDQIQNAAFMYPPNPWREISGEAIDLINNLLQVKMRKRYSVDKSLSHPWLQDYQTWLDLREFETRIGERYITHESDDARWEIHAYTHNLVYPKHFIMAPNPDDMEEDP

EPHA2 (human) = EPHA2 (human) (UniProt P29317)
RPS6KA4 KD2 (human) = RPS6KA4 KD2 (human) (UniProt O75676)
Sequence of RPS6KA4 KD2 (human) (O75676 whole entry, looked up): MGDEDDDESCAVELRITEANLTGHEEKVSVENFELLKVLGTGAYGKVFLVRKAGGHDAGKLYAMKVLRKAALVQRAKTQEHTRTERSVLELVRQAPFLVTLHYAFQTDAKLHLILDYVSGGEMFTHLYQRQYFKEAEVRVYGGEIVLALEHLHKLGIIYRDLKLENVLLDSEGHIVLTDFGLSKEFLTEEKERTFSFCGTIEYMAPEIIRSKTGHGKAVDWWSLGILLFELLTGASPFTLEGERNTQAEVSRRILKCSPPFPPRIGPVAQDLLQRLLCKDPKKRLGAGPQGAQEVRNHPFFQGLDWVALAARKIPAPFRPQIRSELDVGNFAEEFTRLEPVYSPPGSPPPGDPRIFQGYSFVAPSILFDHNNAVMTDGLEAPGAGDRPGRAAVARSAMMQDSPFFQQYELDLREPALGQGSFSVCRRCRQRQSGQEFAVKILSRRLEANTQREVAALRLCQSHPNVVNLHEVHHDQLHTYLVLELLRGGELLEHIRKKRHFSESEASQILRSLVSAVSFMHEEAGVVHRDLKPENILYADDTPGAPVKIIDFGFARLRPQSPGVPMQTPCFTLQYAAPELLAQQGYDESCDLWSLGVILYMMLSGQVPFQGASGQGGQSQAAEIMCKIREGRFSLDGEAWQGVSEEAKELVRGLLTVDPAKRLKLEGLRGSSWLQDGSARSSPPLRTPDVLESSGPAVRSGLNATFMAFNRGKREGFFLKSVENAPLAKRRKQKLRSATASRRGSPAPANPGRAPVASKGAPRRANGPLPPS

CAMK2G (human) = CAMK2G (human) (UniProt Q13555)
MAP3K7 TAB1 (human) = MAP3K7 TAB1 (human) (UniProt O43318+Q15750)
DYRK1B (human) = DYRK1B (human) (UniProt Q9Y463)
MAP3K2 (human) = MAP3K2 (human) (UniProt Q9Y2U5)
ADRBK2 (human) = ADRBK2 (human) (UniProt P35626)
TXK (human) = TXK (human) (UniProt P42681)
PTK2B (human) = PTK2B (human) (UniProt Q14289)
HIPK3 (human) = HIPK3 (human) (UniProt Q9H422)
MAP4K4 (human) = MAP4K4 (human) (UniProt O95819)
Sequence of MAP4K4 (human) (O95819 whole entry, looked up): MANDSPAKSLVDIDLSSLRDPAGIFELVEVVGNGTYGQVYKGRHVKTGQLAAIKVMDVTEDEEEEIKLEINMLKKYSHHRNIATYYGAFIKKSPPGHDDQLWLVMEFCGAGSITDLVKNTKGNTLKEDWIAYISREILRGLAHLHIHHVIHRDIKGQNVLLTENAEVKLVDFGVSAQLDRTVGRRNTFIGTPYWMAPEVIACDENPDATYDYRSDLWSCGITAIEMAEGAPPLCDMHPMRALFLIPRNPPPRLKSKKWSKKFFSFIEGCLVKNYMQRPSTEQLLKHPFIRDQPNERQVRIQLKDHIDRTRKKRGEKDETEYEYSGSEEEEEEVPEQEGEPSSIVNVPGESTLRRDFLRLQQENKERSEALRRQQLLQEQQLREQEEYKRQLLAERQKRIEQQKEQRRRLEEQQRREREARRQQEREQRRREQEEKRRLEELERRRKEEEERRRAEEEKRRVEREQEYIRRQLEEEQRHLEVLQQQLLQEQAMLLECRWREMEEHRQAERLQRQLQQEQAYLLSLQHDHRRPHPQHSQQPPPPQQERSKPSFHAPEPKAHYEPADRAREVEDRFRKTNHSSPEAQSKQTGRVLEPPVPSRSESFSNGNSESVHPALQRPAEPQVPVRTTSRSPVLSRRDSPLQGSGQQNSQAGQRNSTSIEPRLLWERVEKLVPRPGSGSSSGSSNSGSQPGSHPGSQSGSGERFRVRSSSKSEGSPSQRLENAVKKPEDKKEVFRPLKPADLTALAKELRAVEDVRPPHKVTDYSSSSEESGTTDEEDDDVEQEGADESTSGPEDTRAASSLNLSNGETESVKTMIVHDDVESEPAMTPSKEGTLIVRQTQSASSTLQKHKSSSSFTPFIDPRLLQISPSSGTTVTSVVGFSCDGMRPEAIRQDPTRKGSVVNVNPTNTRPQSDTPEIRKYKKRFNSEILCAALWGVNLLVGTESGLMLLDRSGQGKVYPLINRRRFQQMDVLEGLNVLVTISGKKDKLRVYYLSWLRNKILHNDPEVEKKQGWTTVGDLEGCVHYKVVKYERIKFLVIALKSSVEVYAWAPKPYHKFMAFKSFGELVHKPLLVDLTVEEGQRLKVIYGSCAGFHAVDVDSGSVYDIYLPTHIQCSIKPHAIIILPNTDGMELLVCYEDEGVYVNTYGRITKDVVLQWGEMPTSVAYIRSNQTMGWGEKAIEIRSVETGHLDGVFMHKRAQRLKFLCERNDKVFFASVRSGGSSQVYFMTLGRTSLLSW

Sequence of RPS6KA3 KD1 KD2 (human) (P51812 whole entry, looked up): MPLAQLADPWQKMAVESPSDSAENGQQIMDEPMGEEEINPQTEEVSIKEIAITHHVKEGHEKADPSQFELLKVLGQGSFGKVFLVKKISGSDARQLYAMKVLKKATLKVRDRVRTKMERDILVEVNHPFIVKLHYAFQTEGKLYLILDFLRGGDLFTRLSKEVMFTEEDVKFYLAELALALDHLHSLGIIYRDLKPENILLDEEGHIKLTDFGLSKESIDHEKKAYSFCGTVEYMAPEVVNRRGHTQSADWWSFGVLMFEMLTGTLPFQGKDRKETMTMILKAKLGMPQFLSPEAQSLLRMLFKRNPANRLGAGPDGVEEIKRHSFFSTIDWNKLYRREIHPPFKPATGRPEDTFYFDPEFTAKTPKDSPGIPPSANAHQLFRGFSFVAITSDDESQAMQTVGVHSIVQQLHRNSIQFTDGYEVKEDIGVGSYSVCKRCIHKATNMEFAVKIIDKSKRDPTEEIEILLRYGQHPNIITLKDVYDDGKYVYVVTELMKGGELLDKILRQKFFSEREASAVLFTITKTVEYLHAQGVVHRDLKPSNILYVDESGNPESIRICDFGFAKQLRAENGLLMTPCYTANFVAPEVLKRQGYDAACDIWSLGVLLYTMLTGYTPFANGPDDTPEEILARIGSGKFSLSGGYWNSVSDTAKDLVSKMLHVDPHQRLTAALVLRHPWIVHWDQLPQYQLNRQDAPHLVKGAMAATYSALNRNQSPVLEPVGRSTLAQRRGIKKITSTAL

**Q.** What does the source list for `NC(=O)c1ccc(N(C(N)=O)c2c(F)cccc2F)nc1-c1ccc(F)cc1F`?
**A.** residual activity (PAK3 (human)): 98.3%; residual activity (CAMKK1 (human)): 98.9%; residual activity (PRKCD (human)): 104%; residual activity (RPS6KA3 KD1 KD2 (human)): 99.8%; residual activity (ACVR1B (human)): 113%; residual activity (PIM2 (human)): 98.3%; residual activity (FGFR3 (human)): 90.2%; residual activity (DAPK3 (human)): 107%; residual activity (NTRK1 (human)): 96.3%; residual activity (CDC42BPA (human)): 93.8%; residual activity (YES1 (human)): 97.8%; residual activity (CHEK2 (human)): 97.6%; residual activity (PIM1 (human)): 98.8%; residual activity (MET (human)): 89.4%; residual activity (TNK2 (human)): 96.1%; residual activity (AKT3 (human)): 86.2%; residual activity (MAPK10 (human)): 98.4%; residual activity (VRK1 (human)): 104%; residual activity (MAPK11 (human)): 22.3%; residual activity (BTK (human)): 98.2%; residual activity (STK25 (human)): 97.1%; residual activity (MAP3K14 (human)): 114%; residual activity (ITK (human)): 105%; residual activity (EPHA5 (human)): 105%; residual activity (CSNK1G1 (human)): 102%; residual activity (RPS6KB1 (human)): 100%; residual activity (MAP3K5 (human)): 102%; residual activity (CDK1 CCNB1 (human)): 95.7%; residual activity (PRKCB1 (human)): 86.1%; residual activity (DSTYK (human)): 101%; residual activity (PRKD3 (human)): 85.1%; residual activity (EPHA2 (human)): 89%; residual activity (RPS6KA4 KD2 (human)): 99%; residual activity (CAMK2G (human)): 105%; residual activity (MAP3K7 TAB1 (human)): 105%; residual activity (DYRK1B (human)): 97.1%; residual activity (MAP3K2 (human)): 122%; residual activity (ADRBK2 (human)): 98.1%; residual activity (TXK (human)): 104%; residual activity (PTK2B (human)): 102%; residual activity (HIPK3 (human)): 98.4%; residual activity (MAP4K4 (human)): 108%

**Q.** `O=C(Nc1ccc(Cl)cc1)c1ccccc1NCc1ccncc1` was tested. Which residual activity (PAK3 (human)) did it give?
**A.** Its residual activity is 95.5%.

**Q.** What about the residual activity (CAMKK1 (human)) of the same compound?
**A.** Its residual activity is 98.5%.

**Q.** What about the residual activity (PRKCD (human)) of the same compound?
**A.** The residual activity was 84.7%.

**Q.** What about the residual activity (RPS6KA3 KD1 KD2 (human)) of the same compound?
**A.** The residual activity was 91.4%.

**Q.** And the residual activity (ACVR1B (human))?
**A.** The residual activity was 95.8%.

**Q.** What about the residual activity (PIM2 (human)) of the same compound?
**A.** Its residual activity is 99.5%.

**Q.** And the residual activity (FGFR3 (human))?
**A.** The residual activity was 92.2%.

**Q.** What about the residual activity (DAPK3 (human)) of the same compound?
**A.** The residual activity was 94%.

**Q.** And the residual activity (NTRK1 (human))?
**A.** Its residual activity is 95.5%.

**Q.** And the residual activity (CDC42BPA (human))?
**A.** Its residual activity is 90.5%.

**Q.** What about the residual activity (YES1 (human)) of the same compound?
**A.** The residual activity was 95.3%.

**Q.** And the residual activity (CHEK2 (human))?
**A.** Its residual activity is 94.5%.

**Q.** And the residual activity (PIM1 (human))?
**A.** Its residual activity is 98.9%.

**Q.** And the residual activity (MET (human))?
**A.** The residual activity was 92.2%.

**Q.** What about the residual activity (TNK2 (human)) of the same compound?
**A.** The residual activity was 99.3%.

**Q.** What about the residual activity (AKT3 (human)) of the same compound?
**A.** The residual activity was 97.9%.

**Q.** What about the residual activity (MAPK10 (human)) of the same compound?
**A.** Its residual activity is 89.9%.

**Q.** And the residual activity (VRK1 (human))?
**A.** Its residual activity is 104%.

**Q.** What about the residual activity (MAPK11 (human)) of the same compound?
**A.** Its residual activity is 91.4%.

**Q.** And the residual activity (BTK (human))?
**A.** Its residual activity is 98.9%.

**Q.** And the residual activity (STK25 (human))?
**A.** The residual activity was 91.6%.

**Q.** What about the residual activity (MAP3K14 (human)) of the same compound?
**A.** The residual activity was 114%.

**Q.** And the residual activity (ITK (human))?
**A.** Its residual activity is 94.1%.

**Q.** What about the residual activity (EPHA5 (human)) of the same compound?
**A.** The residual activity was 82.1%.

**Q.** What about the residual activity (CSNK1G1 (human)) of the same compound?
**A.** The residual activity was 110%.

**Q.** And the residual activity (RPS6KB1 (human))?
**A.** Its residual activity is 92.5%.

**Q.** What about the residual activity (CDK1 CCNB1 (human)) of the same compound?
**A.** The residual activity was 96.3%.

**Q.** What about the residual activity (PRKCB1 (human)) of the same compound?
**A.** Its residual activity is 98.1%.

**Q.** What about the residual activity (DSTYK (human)) of the same compound?
**A.** The residual activity was 94.7%.

**Q.** And the residual activity (PRKD3 (human))?
**A.** The residual activity was 92.1%.

**Q.** What about the residual activity (EPHA2 (human)) of the same compound?
**A.** The residual activity was 101%.

**Q.** What about the residual activity (RPS6KA4 KD2 (human)) of the same compound?
**A.** Its residual activity is 90.2%.

**Q.** What about the residual activity (CAMK2G (human)) of the same compound?
**A.** Its residual activity is 89.2%.

**Q.** And the residual activity (MAP3K7 TAB1 (human))?
**A.** Its residual activity is 98.1%.

**Q.** And the residual activity (DYRK1B (human))?
**A.** Its residual activity is 106%.

**Q.** And the residual activity (MAP3K2 (human))?
**A.** Its residual activity is 92.8%.

**Q.** And the residual activity (ADRBK2 (human))?
**A.** Its residual activity is 96.1%.

**Q.** What about the residual activity (TXK (human)) of the same compound?
**A.** The residual activity was 97.7%.

**Q.** What about the residual activity (PTK2B (human)) of the same compound?
**A.** Its residual activity is 89.3%.

**Q.** What about the residual activity (HIPK3 (human)) of the same compound?
**A.** The residual activity was 98.7%.

**Q.** What about the residual activity (MAP4K4 (human)) of the same compound?
**A.** The residual activity was 88.7%.
